Molecules are shown by their SMILES.

Holding throughout (assay type): cell-based
The subject of test [1] is MDA-MB-231 (breast cancer). As to the kind of experiment: Antiproliferative activity (CCK-8 cell viability), MDA-MB-231. The following applies: Homo sapiens, 72 h; for inhibition at 3.3 µM: Compound concentration: 3.3 μM; for inhibition at 3.3 µM / inhibition at 10 µM: read-out: Antiproliferative activity in cancerous cells, MDA-MB-231 (inhibition of cell growth); for inhibition at 10 µM: Compound concentration: 10 μM; for inhibition at 30 µM: Compound concentration: 30 μM, read-out: Antiproliferative activity in cancerous cells, MDA-MB-231. The gist of the method: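 MDA-MB-231 breast cancer cells, grown in DMEM with 10% FBS, were plated in 96-well plates at 2,000-5,000 cells/well. Once attached, they were exposed to compound and incubated at 37° C. for 72 h. Viability was then measured with CCK-8 (10 μL per well, 4 h at 37° C.) by absorbance at 450 nm, relative to DMSO vehicle wells.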

Test [2] deals with HepG2 (liver cancer). The experiment in a line: Antiproliferative activity (CCK-8 cell viability), HepG2. The following applies: Homo sapiens, 72 h, read-out: Antiproliferative activity in cancerous cells, HepG2 (inhibition of cell growth); for inhibition at 3.3 µM: Compound concentration: 3.3 μM; for inhibition at 10 µM: Compound concentration: 10 μM. Put shortly:
(§1)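 Cells grown in DMEM (HepG2, SW480), MEM (HeLa) or F-12K (A549), each with 10% FBS, then exposed to compound at 3.3, 10 or 30 μM for 72 h at 37 °C. CCK-8 absorbance at 450 nm; viability expressed as percent of DMSO-treated cells, graded as growth inhibition bands.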

The subject of test [3] is SW480 (colon cancer). As to the kind of experiment: Antiproliferative activity (CCK-8 cell viability), SW480. Conditions: Homo sapiens, 72 h, read-out: Antiproliferative activity in cancerous cells, SW480 (inhibition of cell growth); for inhibition at 3.3 µM: Compound concentration: 3.3 μM; for inhibition at 10 µM: Compound concentration: 10 μM. The gist of the method:
as §1

Test [4] has as its system B16F10 (malignant melanoma). The experiment in a line: Antiproliferative activity (CCK-8 cell viability), B16F10. Conditions: Mus musculus, 72 h, read-out: Antiproliferative activity in cancerous cells, B16F10 (inhibition of cell growth); for inhibition at 3.3 µM: B16-F10, Compound concentration: 3.3 μM; for inhibition at 10 µM: B16-F10, Compound concentration: 10 μM. Put shortly:
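B16F10 melanoma cells grown in DMEM with 10% FBS were plated in 96-well plates at 2,000-5,000 cells/well. After attachment they were exposed to compound in medium for 72 h at 37° C. CCK-8 solution (10 μL) was then added, and after 4 h at 37° C absorbance was read at 450 nm.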

For test [5], the system named is A431 (epidermoid carcinoma). As to the kind of experiment: Antiproliferative activity (CCK-8 cell viability), A431. Conditions: Homo sapiens, 72 h; for inhibition at 3.3 µM: A-431, Compound concentration: 3.3 μM; for inhibition at 3.3 µM / inhibition at 10 µM: read-out: Antiproliferative activity in cancerous cells, A431 (inhibition of cell growth); for inhibition at 10 µM: A-431, Compound concentration: 10 μM; for inhibition at 30 µM: A-431, Compound concentration: 30 μM, read-out: Antiproliferative activity in cancerous cells, A431. The gist of the method: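 A431 epidermoid carcinoma cells grown in DMEM with 10% FBS were plated at 2,000-5,000 cells/well in 96-well plates. After attachment they were exposed to compound at 3.3 μM, 10 μM, or 30 μM for 72 h at 37° C. Viability was then assessed by CCK-8 against DMSO vehicle-treated wells.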

Test [6] concerns A549 (lung adenocarcinoma). The experiment in a line: Antiproliferative activity (CCK-8 cell viability), A549. The following applies: Homo sapiens, 72 h, read-out: Antiproliferative activity in cancerous cells, A549 (inhibition of cell growth); for inhibition at 3.3 µM: Compound concentration: 3.3 μM; for inhibition at 10 µM: Compound concentration: 10 μM. The gist of the method: as §1

Test [7] deals with HeLa (cervical cancer). The experiment in a line: Antiproliferative activity (CCK-8 cell viability), HeLa. The following applies: Homo sapiens, 72 h, read-out: Antiproliferative activity in cancerous cells, HELA (inhibition of cell growth); for inhibition at 3.3 µM: Compound concentration: 3.3 μM; for inhibition at 10 µM: Compound concentration: 10 μM. Put shortly: as §1

With `CC1=C(CC(=O)O)c2cc(F)ccc2/C1=C\c1ccc(S(=O)(=O)c2ccc(F)cc2)cc1` [C40, (Z)-2-(5-Fluoro-1-(4-((4-fluorophenyl)sulfonyl)benzylidene)-2-methyl-1H-inden-3-yl)acetic acid], the inhibition at 3.3 µM in test [1] is 30 to 50%; in test [2] it was less than 30%; in test [3], less than 30%; in test [4] it was less than 30%; in test [5], 30 to 50%; in test [6] it was less than 30%. In addition, in test [7], the inhibition at 3.3 µM was less than 30%. Also, the inhibition at 10 µM in test [1] was 30 to 50%; in test [2], no less than 50%; in test [3] it was no less than 50%; in test [4], no less than 50%; in test [5], 30 to 50%; in test [6] it was 30 to 50%. Besides, the inhibition at 10 µM in test [7] was no less than 50%. Also, the inhibition at 30 µM in test [1] lay within 30 to 50%.
In the case of `COc1ccc(S(=O)(=O)c2ccc(/C=C3/C(C)=C(CC(=O)O)c4cc(F)ccc43)cc2)cc1` [C41, (Z)-2-(5-Fluoro-1-(4-((4-methoxyphenyl)sulfonyl)benzylidene)-2-methyl-1H-inden-3-yl)acetic acid], the inhibition at 3.3 µM in test [1] is no less than 50%; in test [2], less than 30%; in test [3], less than 30%; in test [4], 30 to 50%; in test [5] it was 30 to 50%; in test [6], less than 30%. Besides, the inhibition at 3.3 µM in test [7] was less than 30%. Further, the inhibition at 10 µM in test [1], in test [2], in test [3], in test [4], in test [5] and in test [6] was no less than 50% in each case. Also, the inhibition at 10 µM in test [7] is no less than 50%.
Turning to `CC1=C(CC(=O)O)c2cc(F)ccc2/C1=C\c1cccc(Sc2ccc(F)cc2)c1` [C42, (Z)-2-(5-Fluoro-1-(3-((4-fluorophenyl)thio)benzylidene)-2-methyl-1H-inden-3-yl)acetic acid], the inhibition at 3.3 µM in test [1] was no less than 50%; in test [2] it was less than 30%; in test [3], less than 30%; in test [4], 30 to 50%; in test [5] it was less than 30%; in test [6], less than 30%. Also, the inhibition at 3.3 µM in test [7] was less than 30%. Further, the inhibition at 10 µM in test [1], in test [2], in test [3], in test [4], in test [5] and in test [6] was no less than 50% in each case. In addition, the inhibition at 10 µM in test [7] is no less than 50%.
Turning to `CC1=C(CC(=O)O)c2cc(F)ccc2/C1=C\c1cccc([S+]([O-])c2ccc(F)cc2)c1` (centres unmarked) [C43, (Z)-2-(5-Fluoro-1-(3-((4-fluorophenyl)sulfinyl)benzylidene)-2-methyl-1H-inden-3-yl)acetic acid], the inhibition at 3.3 µM in test [1] is 30 to 50%; in test [2], less than 30%; in test [3], less than 30%; in test [4], less than 30%; in test [5], 30 to 50%; in test [6], less than 30%. Moreover, the inhibition at 3.3 µM in test [7] was less than 30%. The inhibition at 10 µM in test [1] is no less than 50%; in test [2] it was less than 30%; in test [3], less than 30%; in test [4], less than 30%; in test [5], 30 to 50%; in test [6] it was 30 to 50%. Also, the inhibition at 10 µM in test [7] lay in the range of 30 to 50%. Also, the inhibition at 30 µM in test [5] lay within 30 to 50%.
`CC1=C(CC(=O)O)c2cc(F)ccc2/C1=C\c1cccc(S(=O)(=O)c2ccc(F)cc2)c1` [C44, (Z)-2-(5-Fluoro-1-(3-((4-fluorophenyl)sulfonyl)benzylidene)-2-methyl-1H-inden-3-yl)acetic acid]: the inhibition at 3.3 µM in test [1] is no less than 50%; in test [2], less than 30%; in test [3], less than 30%; in test [4], less than 30%; in test [5], no less than 50%; in test [6], less than 30%. Besides, the inhibition at 3.3 µM in test [7] was less than 30%. In addition, the inhibition at 10 µM was no less than 50% in test [1]; no less than 50% in test [2]; 30 to 50% in test [3]; 30 to 50% in test [4]; 30 to 50% in test [5]; 30 to 50% in test [6]. Moreover, in test [7], the inhibition at 10 µM was no less than 50%.
`CC1=C(CC(=O)O)c2cc(F)ccc2/C1=C\c1ccc([S+]([O-])c2ccc(F)cc2)cc1` (centres unmarked) [C45, (Z)-2-(5-Fluoro-1-(4-((4-fluorophenyl)sulfinyl)benzylidene)-2-methyl-1H-inden-3-yl)acetic acid]: the inhibition at 3.3 µM in test [1] is 30 to 50%; in test [2], less than 30%; in test [3], less than 30%; in test [4], no less than 50%; in test [5], less than 30%; in test [6], less than 30%. The inhibition at 3.3 µM in test [7] is less than 30%. In addition, the inhibition at 10 µM in test [1] is no less than 50%; in test [2], less than 30%; in test [3], 30 to 50%; in test [4] it was no less than 50%; in test [5] it was less than 30%; in test [6] it was 30 to 50%. In test [7], the inhibition at 10 µM is no less than 50%. For the same compound, the inhibition at 30 µM in test [5] was less than 30%.
`CC1=C(CC(=O)O)c2cc(F)ccc2/C1=C\c1ccc(Sc2ccc(F)cc2)cc1` [C47, (Z)-2-(5-Fluoro-1-(4-((4-fluorophenyl)thio)benzylidene)-2-methyl-1H-inden-3-yl)acetic acid]: the inhibition at 3.3 µM in test [1] was less than 30%; in test [2], less than 30%; in test [3], less than 30%; in test [4] it was less than 30%; in test [5] it was 30 to 50%; in test [6], less than 30%. Further, the inhibition at 3.3 µM in test [7] is less than 30%. Also, the inhibition at 10 µM in test [1] is less than 30%; in test [2], no less than 50%; in test [3], no less than 50%; in test [4], no less than 50%; in test [5], no less than 50%; in test [6] it was no less than 50%. The inhibition at 10 µM in test [7] was no less than 50%. Besides, in test [1], the inhibition at 30 µM is less than 30%.
Consider `CC1=C(CC(=O)O)c2cc(F)ccc2/C1=C\c1ccc(Oc2ccc(Cl)c(Cl)c2)cc1` [C49, (Z)-2-(1-(4-(3,4-Dichlorophenoxy)benzylidene)-5-fluoro-2-methyl-1H-inden-3-yl)acetic acid], for which the inhibition at 3.3 µM in test [1] is less than 30%; in test [2], less than 30%; in test [3], 30 to 50%; in test [4] it was less than 30%; in test [5] it was no less than 50%; in test [6], less than 30%. Further, the inhibition at 3.3 µM in test [7] was no less than 50%. The inhibition at 10 µM in test [1], in test [2], in test [3], in test [4], in test [5] and in test [6] was no less than 50% in each case. Moreover, in test [7], the inhibition at 10 µM is no less than 50%.

The values are drawn from patent US20260184663A1, “INDENE COMPOUNDS, PHARMACEUTICAL COMPOSITIONS THEREOF, AND THEIR THERAPEUTIC APPLICATIONS” (NucMito Pharmaceuticals co. Ltd., priority 2022, published 2026).
